Source: patent US9284307B2, “Macrocyclic serine protease inhibitors” (Idenix Pharmaceuticals LLC, priority 2009, dated 2016)

Columns and labels:
HCV NS3-NS4A protease 2a = molecular target: T1, HCV NS3-NS4A protease 2a (Hepatitis C virus genotype 2a, UniProt Q99IB8); experiment: HCV protease assay (HiLyte Fluor TR/QXL 610 FRET peptide), genotype 2a; assay type: biochemical; conditions: 2-3 nM protease, 60 min at 30° C., read-out: IC50 Against HS3/4A 2a
T1 construct: using 2-3 nM HCV NS3-NS4A protease, which was produced according to the method of Taremi et al; made in house
Experimental: (§1) Measurement of the inhibitory effect of compounds on HCV protease activity was performed using the HiLyte Fluor™ TR/QXL™ 610 FRET peptide from AnaSpec, Inc. (San Jose, Calif.) under conditions developed in-house using 2-3 nM HCV NS3-NS4A protease, which was produced according to the method of Taremi et al. (Protein Science, 1998, 7, 2143-2149). The compounds were tested at a variety of concentrations in assay buffer containing a final DMSO concentration of 5%. Reactions were allowed to proceed for 60 min at 30° C. and fluorescence measurements were recorded with a PerkinElmer Victor^3 V 1420 Multilabel Counter. The IC50 values were determined from the percent inhibition versus concentration data using a sigmoidal non-linear regression analysis based on four parameters with XLfit 4.1 software.

[1] = system: HCV Con1 subgenomic replicon in Huh-7 cells (GS4.1 cells); experiment: HCV replicon assay (NS4A ELISA, GS4.1 cells); assay type: cell-based; conditions: Hepatitis C virus, 72 hr
Experimental: Huh-7 cells containing HCV Con1 subgenomic replicon (GS4.1 cells) were grown in Dulbecco's Modified Eagle Medium (DMEM) supplemented with 10% fetal bovine serum (FBS), 2 mM L-glutamine, 110 mg/L sodium pyruvate, 1× non-essential amino acids, 100 U/mL penicillin-streptomycin, and 0.5 mg/mL G418 (Invitrogen). For dose-response testing, the cells were seeded in 96-well plates at 7.5×10^3 cells/well in a volume of 50 μL, and incubated at 37° C./5% CO2. Three hours after plating, 50 μL of ten 2-fold serial dilutions of compounds (highest concentration, 75 μM) were added, and cell cultures were incubated at 37° C./5% CO2 in the presence of 0.5% DMSO. Alternatively, compounds were tested at a single concentration of 15 μM. In all cases, Huh-7 cells lacking the HCV replicon served as negative control. The cells were incubated in the presence of compounds for 72 hr after which they were monitored for expression of the NS4A protein by enzyme-linked immunosorbent assay (ELISA). […] The reaction was stopped after 30 min with 2 N H2SO4, and absorbance was read at 492 nm using Sunrise Tecan spectrophotometer. EC50 values were determined from the % inhibition versus concentration data using a sigmoidal non-linear regression analysis based on four parameters with Tecan Magellan software.

HCV NS3-NS4A protease 1a = molecular target: T2, HCV NS3-NS4A protease 1a (Hepatitis C virus genotype 1a, UniProt P27958); experiment: HCV protease assay (HiLyte Fluor TR/QXL 610 FRET peptide), genotype 1a; assay type: biochemical; conditions: 2-3 nM protease, 60 min at 30° C., read-out: IC50 Against HS3/4A 1a
T2 construct: using 2-3 nM HCV NS3-NS4A protease, which was produced according to the method of Taremi et al; made in house
Experimental: as §1

[2] = system: HCV luciferase-bearing wild-type replicon in cured GS4.1 cells; experiment: Luciferase replicon transient transfection assay, wild-type replicon; assay type: cell-based
Experimental: (§2) The luciferase replicon transient transfection assay measures the ability of a test compound to inhibit the replication of a transiently-transfected HCV luciferase-bearing wild-type or mutant replicon in cured human hepatoma cells (cured GS4.1). The mutant replicons bear a specific single-site mutation in NS3 that is known to confer resistance to protease inhibitors currently in development. The inhibition of HCV replication was measured by quantification of luciferase protein expression. This assay has been validated using a panel of replicons bearing known protease inhibitor resistance mutations and their respective reference compounds. Briefly, subconfluent cured GS4.1 cells in OptiBuffer (ThermoElectron Corp.) were electroporated with 40 μg of wild-type or mutant luciferase-bearing HCV replicon RNA. The cells were then seeded in 96-well opaque white plates at 2.4×10^4 cells/well in 150 μL/well and incubated for 4 hours at 37° C./5% CO2. […] The plates were agitated on a rotating platform at room temperature for 3 minutes and read in a Victor^3V microplate reader (Perkin-Elmer) using a 700 nm cut-off filter with a 1 second read time. EC50 values were calculated from dose response curves from the resulting best-fit equations determined by Microsoft Excel and XLfit 4.1 software.

[3] = system: HCV luciferase-bearing mutant replicon, NS3 A156S, in cured GS4.1 cells; experiment: Luciferase replicon transient transfection assay, A156S mutant replicon; assay type: cell-based
Experimental: as §2

[4] = system: HCV luciferase-bearing mutant replicon, NS3 D168V, in cured GS4.1 cells; experiment: Luciferase replicon transient transfection assay, D168V mutant replicon; assay type: cell-based
Experimental: as §2

[5] = system: HCV luciferase-bearing mutant replicon, NS3 R155K, in cured GS4.1 cells; experiment: Luciferase replicon transient transfection assay, R155K mutant replicon; assay type: cell-based
Experimental: as §2

HCV NS3-NS4A protease 3a = molecular target: T3, HCV NS3-NS4A protease 3a (Hepatitis C virus genotype 3a, UniProt Q81258); experiment: HCV protease assay (HiLyte Fluor TR/QXL 610 FRET peptide), genotype 3a; assay type: biochemical; conditions: 2-3 nM protease, 60 min at 30° C., read-out: IC50 Against HS3/4A 3a
T3 construct: using 2-3 nM HCV NS3-NS4A protease, which was produced according to the method of Taremi et al; made in house
Experimental: as §1

HCV NS3-NS4A protease 1b = molecular target: T4, HCV NS3-NS4A protease 1b (Hepatitis C virus genotype 1b, UniProt Q9WMX2); experiment: HCV protease assay (HiLyte Fluor TR/QXL 610 FRET peptide), genotype 1b; assay type: biochemical; conditions: 2-3 nM protease, 60 min at 30° C., read-out: IC50 Against HS3/4A 1b
T4 construct: using 2-3 nM HCV NS3-NS4A protease, which was produced according to the method of Taremi et al; made in house
Experimental: as §1

in vitro = assay type: cell-based; conditions: human
Experimental: For cytotoxicity evaluation, GS4.1 cells were treated with compounds as described above and cellular viability was monitored using the Cell Titer 96 AQueous One Solution Cell Proliferation Assay (Promega). CC50 values were determined from the % cytotoxicity versus concentration data with Tecan Magellan software as described above.

## COc1ccc2c(O[C@H]3CC[C@H]4C(=O)N(C)CCCC/C=C\[C@@H]5C[C@@]5(C(=O)NS(=O)(=O)C5(C)CC5)NC(=O)[C@@H]4C3)cc(-c3nc(C(F)(F)F)cs3)nc2c1C [Compound 51]
HCV NS3-NS4A protease 2a
  IC50: < 1 µM
[1]
  EC50: < 1 µM
HCV NS3-NS4A protease 1a
  IC50: < 1 µM
[2]; EC50 fold change, wild-type replicon
  Fold Change, Wild Type replicon: 1
[2]; Hepatitis C virus, 96 h, read-out: EC50(nm), Wild Type replicon
  EC50: 0.00035 to 0.0011 µM
[3]; EC50 fold change, A156S replicon
  Fold Change, A156S replicon: 0.2 to 0.6
[3]; Hepatitis C virus, 96 h, read-out: EC50(nm), A156S replicon
  EC50: 0.0001 to 0.00035 µM
[4]; EC50 fold change, D168V replicon
  Fold Change, D168V replicon: 1000-3000
[4]; Hepatitis C virus, 96 h, read-out: EC50(nm), D168V replicon
  EC50: 2 to 2.75 µM
[5]; EC50 fold change, R155K replicon
  Fold Change, R155K replicon: 10-20
[5]; Hepatitis C virus, 96 h, read-out: EC50(nm), R155K replicon
  EC50: 0.005 to 0.015 µM
HCV NS3-NS4A protease 3a
  IC50: < 1 µM
HCV NS3-NS4A protease 1b
  IC50: < 1 µM
In vitro
  CC50: 10 to 75 µM
